Measurements reported in patent US20160199434A1, “COMPOSITIONS AND METHODS FOR MODULATING DNA METHYLATION” (OHIO STATE INNOVATION FOUNDATION, priority 2013, published 2016).

Tested on: human A375 melanoma cells
Experiment: Tumor growth of human A375 melanoma cells implanted in SCID mice
Type: in vivo, mouse
Settings: 19 days after palpable tumor formation, AKB-6899 17.5 mg/kg, Docetaxel 30 mg/kg
Experimental: During treatment, tumor growth was determined. Animals were treated with one the following combinations: vehicle/vehicle, vehicle/AKB-6899 (17.5 mg/kg), Docetaxel (30 mg/kg)/vehicle, or Docetaxel/AKB-6899. 19 days after palpable tumor formation, the tumors in the mice receiving the vehicle/AKB-6899 combination had tumors that were 74% the size of control; the tumors in the mice receiving Docetaxel/vehicle combination had tumors that were 49% the size of control; and the tumors in the mice receiving the Docetaxel/AKB-6899 combination had tumors that were 13% the size of control.

CC(=O)O[C@@]12CO[C@@H]1C[C@H](O)[C@@]1(C)C(=O)[C@H](O)C3=C(C)[C@@H](OC(=O)[C@H](O)[C@@H](NC(=O)OC(C)(C)C)c4ccccc4)C[C@@](O)([C@@H](OC(=O)c4ccccc4)[C@H]21)C3(C)C [Docetaxel, reference compound]
tumor size relative to control: 49%
